Consider eight compounds from patent US4199512A, “Compounds for alleviating hypertension” (E. R. Squibb & Sons, Inc., priority 1978, dated 1980).

For test [1], the system named is angiotensin I converting enzyme in excised guinea pig ileum. Briefly: Inhibition of angiotensin I converting enzyme in excised guinea pig ileum (contractile activity of angiotensin I). The following applies: Krebs solution at 37°; angiotensin I 25 ng/ml. The procedure:
The procedure for evaluating the inhibition of angiotensin I converting enzyme in excised guinea pig ileum is carried out as follows: varying concentrations of the compound are added to an excised guinea pig ileum bath in Krebs solution at 37°, aerated with a mixture of 95% O2 -5% CO2. After two minutes, angiotensin I (25 ng/ml) is added and the isotonic […] are measured. The concentration of representative compounds of the present invention (in micrograms/ml) which inhibit the contractile activity of angiotensin I by 50% (IC50) are shown in the following table: […]

Test [2] addresses T1, angiotensin converting enzyme (Oryctolagus cuniculus, UniProt P12822).
T1 sequence (P12822 34-1310): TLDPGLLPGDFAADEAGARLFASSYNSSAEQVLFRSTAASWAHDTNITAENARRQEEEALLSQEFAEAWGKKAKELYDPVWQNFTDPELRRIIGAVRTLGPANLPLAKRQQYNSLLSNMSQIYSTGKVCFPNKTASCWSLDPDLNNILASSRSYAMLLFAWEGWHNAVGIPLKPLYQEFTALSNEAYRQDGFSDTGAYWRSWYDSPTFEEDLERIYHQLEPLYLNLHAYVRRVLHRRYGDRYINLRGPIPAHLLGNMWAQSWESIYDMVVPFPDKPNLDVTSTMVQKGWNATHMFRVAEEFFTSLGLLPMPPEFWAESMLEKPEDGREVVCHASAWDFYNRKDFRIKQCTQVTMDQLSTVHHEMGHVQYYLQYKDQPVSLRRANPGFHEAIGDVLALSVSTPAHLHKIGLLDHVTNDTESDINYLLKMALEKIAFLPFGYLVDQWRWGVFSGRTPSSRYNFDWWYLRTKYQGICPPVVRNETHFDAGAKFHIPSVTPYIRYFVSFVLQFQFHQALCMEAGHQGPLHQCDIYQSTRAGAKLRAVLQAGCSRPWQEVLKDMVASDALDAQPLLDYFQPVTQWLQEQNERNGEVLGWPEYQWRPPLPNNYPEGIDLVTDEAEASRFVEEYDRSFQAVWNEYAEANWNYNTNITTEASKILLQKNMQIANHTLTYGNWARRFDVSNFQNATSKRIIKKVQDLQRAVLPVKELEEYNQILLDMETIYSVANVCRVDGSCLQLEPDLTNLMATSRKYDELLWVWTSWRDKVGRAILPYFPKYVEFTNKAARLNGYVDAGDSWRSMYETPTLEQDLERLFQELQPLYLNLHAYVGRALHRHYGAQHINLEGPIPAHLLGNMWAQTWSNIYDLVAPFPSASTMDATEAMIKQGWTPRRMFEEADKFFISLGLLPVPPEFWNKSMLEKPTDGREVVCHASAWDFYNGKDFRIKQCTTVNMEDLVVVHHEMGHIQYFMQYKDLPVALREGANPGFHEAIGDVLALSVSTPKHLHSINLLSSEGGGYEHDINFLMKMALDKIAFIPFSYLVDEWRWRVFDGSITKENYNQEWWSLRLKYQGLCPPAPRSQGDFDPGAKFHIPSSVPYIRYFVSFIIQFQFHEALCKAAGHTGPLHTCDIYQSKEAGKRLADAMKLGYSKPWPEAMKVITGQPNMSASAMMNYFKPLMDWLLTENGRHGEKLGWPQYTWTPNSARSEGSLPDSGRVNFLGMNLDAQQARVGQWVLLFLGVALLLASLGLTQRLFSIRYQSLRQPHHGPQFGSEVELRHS
Briefly: Inhibition of isolated angiotensin-converting enzyme of rabbit lung (cleavage of hippuryl-L-histidyl-L-leucine). To be noted: 5 mM hippuryl-L-histidyl-L-leucine; pH 8.3; 30 minutes at 37° C.; read-out: I50 (50% inhibition of angiotensin-converting enzyme) (converted). Further details: isolated angiotensin converting enzyme from rabbit lungs; from tissue; host or cells: rabbit lung. Type of test: biochemical. From the text:
Although conversion of angiotensin I to angiotensin II by angiotensin-converting enzyme is probably the reaction of most importance in the pathology of hypertension, the activity of the isolated enzyme is more conveniently and accurately assayed by measuring its rate of cleavage of a simpler peptide substrate, hippuryl-L-histidyl-L-leucine. For determination of I50 values (concentrations of compounds expressed in micrograms/ml producing a 50% inhibition of angiotensin-converting enzyme) various concentrations of each compound are added to 13×100 mm tubes along with the following components at the indicated final concentrations in a final volume of 0.25 ml: 100 mM potassium phosphate buffer, pH 8.3; 300 mM sodium chloride; 5 mM hippuryl-L-histidyl-L-leucine; and 5 milliunits of angiotensin-converting enzyme of rabbit lung. Controls containing no inhibitor (100% activity), and those acidified before addition of the enzyme (0% activity) are similarly prepared. All of the enzymatic reactions are initiated by addition of the enzyme component; tubes are incubated for 30 minutes at 37° C.; and reactions are terminated by addition of 0.25 ml. of 1 N HCl. The hippuric acid formed by action of angiotensin-converting enzyme on hippuryl-L-histidyl-L-leucine is extracted into ethyl acetate, evaporated to dryness, redissolved in water and quantitated from its absorbance at 228 nm. The percent inhibition by each concentration of compound is calculated by comparison with the 0% and 100% activity controls. The concentrations of representative compounds of the present invention which inhibit activity of angiotensin-converting enzyme by 50% are shown in the following table: […]

For test [3], the system named is angiotensin I pressor response. The test is described as follows: Inhibition of angiotensin I pressor response in unanesthetized rats, oral. The test is classed as in vivo, rat (male, Sprague-Dawley). The following applies: angiotensin I 0.31 μg/kg, 2 animals. The procedure: Representative compounds of the present invention are administered orally to unanesthetized male rats of the Sprague-Dawley strain, weighing about 200 g., followed by an injection of 0.31 μg/kg of angiotensin I. The following table indicates the degree of inhibition obtained.

The test system of test [4] is 2-kidney Goldblatt renal hypertensive rat. Briefly: Mean blood pressure in 2-kidney Goldblatt renal hypertensive rat, oral. The following applies: second dosage day, 300 mg oral. Type of test: in vivo, rat (male, CF Nelson). The source says: Male rats of the CF Nelson strain are anesthetized with ether and each left renal artery is partially constricted with a silver clip (i.d. 0.22 mm). The right kidney and renal artery are left intact.

Test [5] relates to normotensive rat. The test is described as follows: Blood pressure in normotensive rat, oral. The test is classed as in vivo. To be noted: same dose (300 mg) orally.
Test [6] has as its system anesthetized normotensive rats. The following applies: intravenous; cited from earlier work.
For test [7] the following is noted: in vivo; cited from earlier work.
For test [8], the system named is angiotensinogen and renin blood levels. To be noted: normotensive rats; cited from earlier work.

With `C[C@H](NC(=O)CCS)C(=O)O` [Example 2, N-(3-mercaptopropanoyl)-L-alanine], the “IC50 (inhibit the contractile activity of angiotensin I by 50%)” value in test [1] came out at 0.94 µg/mL. Besides, the IC50 in test [2] is 6.77 µM.

With `CC(C)C[C@H](NC(=O)CCS)C(=O)O` [Example 4, N-(3-Mercaptopropanoyl)-L-leucine], the “IC50 (inhibit the contractile activity of angiotensin I by 50%)” value in test [1] was determined as 2.0 µg/mL. Further, the IC50 in test [2] was 8.21 µM.

As for `O=C(CCS)N[C@@H](Cc1ccccc1)C(=O)O` [Example 6, N-(3-Mercaptopropanoyl)-L-phenylalanine], the “IC50 (inhibit the contractile activity of angiotensin I by 50%)” value in test [1] amounted to 0.52 µg/mL. The IC50 in test [2] was 3.39 µM.

For `N=C(N)NCCC[C@H](NC(=O)CCS)C(=O)O` [Example 8, N^α -(3-Mercaptopropanoyl)-L-arginine], the “IC50 (inhibit the contractile activity of angiotensin I by 50%)” value in test [1] was found to be 0.9 µg/mL. For the same compound, the IC50 in test [2] is 0.648 µM.

Turning to `CN(CC(=O)O)C(=O)CCS` [Example 10, N-(3-Mercaptopropanoyl)sarcosine], in test [1], the “IC50 (inhibit the contractile activity of angiotensin I by 50%)” value came to 0.94 µg/mL. For the same compound, the IC50 in test [2] was 10.2 µM.

Turning to `O=C(O)CNC(=O)CCS` [Example 15, N-(3-Mercaptopropanoyl)glycine], in test [1], the “IC50 (inhibit the contractile activity of angiotensin I by 50%)” value was found to be 4.5 µg/mL. Further, the “% maximum inhibition of angiotensin I pressor response ± SE” value came out at 34.2 ± 6.7% in test [3] (10 mg/kg oral) and 61.5 ± 1.2% in test [3] (100 mg/kg oral). Also, the IC50 in test [2] was 12.3 µM.

On to `N=C(N)NCCC[C@H](NC(=O)C(CS)Cc1ccccc1)C(=O)O` (stereo partly drawn) [Example 34, N^α -(3-mercapto-2-benzylpropanoyl)-L-arginine], for which the “IC50 (inhibit the contractile activity of angiotensin I by 50%)” value in test [1] came to 4.1 µg/mL.

As to `CC(S)C(=O)NCC(=O)O` (stereo not shown) [Example 51, N-2-Mercaptopropanoylglycine], in test [1], the “IC50 (inhibit the contractile activity of angiotensin I by 50%)” value is 2.0 µg/mL. Further, the results for the “% maximum inhibition of angiotensin I pressor response ± SE” value in test [3] (10 mg/kg oral), in test [3] (30 mg/kg oral) and in test [3] (100 mg/kg oral) were 29.9 ± 3.1%, 52.9 ± 15.8% and 64.9 ± 12.3%, respectively. The Mean blood pressure in test [4] (Rat #9, 1 h after drug, before drug 222) came to 206 mm Hg; in test [4] (Rat #9, 2 h after drug, before drug 222) it was 173 mm Hg; in test [4] (Rat #9, 3 h after drug, before drug 222), 157 mm Hg; in test [4] (Rat #9, 4 h after drug, before drug 222) it was 184 mm Hg; in test [4] (Rat #9, 5 h after drug, before drug 222), 206 mm Hg; in test [4] (Rat #9, 6 h after drug, before drug 222), 199 mm Hg. In addition, the Mean blood pressure in test [4] (Rat #10, 1 h after drug, before drug 206) turned out to be 203 mm Hg; in test [4] (Rat #10, 2 h after drug, before drug 206), 190 mm Hg; in test [4] (Rat #10, 3 h after drug, before drug 206), 189 mm Hg; in test [4] (Rat #10, 4 h after drug, before drug 206), 199 mm Hg; in test [4] (Rat #10, 5 h after drug, before drug 206), 195 mm Hg; in test [4] (Rat #10, 6 h after drug, before drug 206), 197 mm Hg. In test [5], the “effects on blood pressure” value is given as “no significant effects on blood pressure”. The “lowering of the blood pressure” value in test [6] is “produced lowering of the blood pressure”. Also, the “effects of blood pressure” value in test [7] was “no noticeable effects of blood pressure”. Besides, the angiotensinogen result in test [8] is recorded as “increases angiotensinogen”. The renin blood levels entry in test [8] is “lowers renin blood levels”. Also, the IC50 in test [2] is 15.9 µM.
